Source: PubChem BioAssay (NCI)
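In this assay, cells in 96-well plates receive the compound at five concentrations for 48 hours. Endpoints are linearly interpolated between the surrounding concentrations. Here, GI50 denotes the concentration required for 50% inhibition of growth. Definition used: TGI = concentration required for complete inhibition of growth.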

How the values were obtained:
Experiment in all cases: growth of human tumour cells (NCI), 48 h
[1] = tested on: 786-0 renal
[2] = tested on: A498 renal
[3] = tested on: A549 NSCLC
[4] = tested on: ACHN renal
[5] = tested on: BT-549 breast
[6] = tested on: CAKI-1 renal
[7] = tested on: CCRF-CEM leukemia
[8] = tested on: COLO 205 colon
[9] = tested on: DU-145 prostate
[10] = tested on: EKVX NSCLC
[11] = tested on: HCC-2998 colon
[12] = tested on: HCT-116 colon
[13] = tested on: HCT-15 colon
[14] = tested on: HL-60(TB) leukemia
[15] = tested on: HOP-62 NSCLC
[16] = tested on: HOP-92 NSCLC
[17] = tested on: HS 578T breast
[18] = tested on: HT29 colon
[19] = tested on: IGROV1 ovarian
[20] = tested on: K-562 leukemia
[21] = tested on: KM12 colon
[22] = tested on: LOX IMVI melanoma
[23] = tested on: M14 melanoma
[24] = tested on: MALME-3M melanoma
[25] = tested on: MCF7 breast
[26] = tested on: MDA-MB-231 breast
[27] = tested on: MDA-MB-435
[28] = tested on: MDA-MB-468 breast
[29] = tested on: MOLT-4 leukemia
[30] = tested on: NCI-H226 lung
[31] = tested on: NCI-H23 lung
[32] = tested on: NCI-H460 lung
[33] = tested on: NCI-H522 lung
[34] = tested on: NCI/ADR-RES ovarian
[35] = tested on: OVCAR-3 ovarian
[36] = tested on: OVCAR-4 ovarian
[37] = tested on: OVCAR-5 ovarian
[38] = tested on: OVCAR-8 ovarian
[39] = tested on: PC-3 prostate
[40] = tested on: RPMI-8226 leukemia
[41] = tested on: RXF 393 renal
[42] = tested on: SF-268 CNS
[43] = tested on: SF-295 CNS
[44] = tested on: SF-539 CNS
[45] = tested on: SK-MEL-2 melanoma
[46] = tested on: SK-MEL-28 melanoma
[47] = tested on: SK-MEL-5 melanoma
[48] = tested on: SK-OV-3 ovarian
[49] = tested on: SN12C renal
[50] = tested on: SNB-19 CNS
[51] = tested on: SNB-75 CNS
[52] = tested on: SR leukemia
[53] = tested on: SW-620 colon
[54] = tested on: T-47D breast
[55] = tested on: TK-10 renal
[56] = tested on: U251 CNS
[57] = tested on: UACC-62 melanoma
[58] = tested on: UO-31 renal

COc1ccc2cc([C@H](C)C(=O)NCc3ccccc3)ccc2c1
GI50 [1]: 7.94 µM
TGI [1]: > 100 µM
GI50 [2]: > 100 µM
TGI [2]: > 100 µM
GI50 [3]: 6.86 µM
TGI [3]: > 100 µM
GI50 [4]: 5.93 µM
TGI [4]: > 100 µM
GI50 [5]: 5.47 µM
TGI [5]: > 100 µM
GI50 [6]: 4.78 µM
TGI [6]: > 100 µM
GI50 [7]: 3.9 µM
TGI [7]: > 100 µM
GI50 [8]: 3.03 µM
TGI [8]: 14 µM
GI50 [9]: 5.52 µM
TGI [9]: > 100 µM
GI50 [10]: 3.82 µM
TGI [10]: > 100 µM
GI50 [11]: 6.89 µM
TGI [11]: > 100 µM
GI50 [12]: 5.21 µM
TGI [12]: > 100 µM
GI50 [13]: 3.28 µM
TGI [13]: > 100 µM
GI50 [14]: 2.25 µM
TGI [14]: 7.52 µM
GI50 [15]: 4.02 µM
TGI [15]: 76 µM
GI50 [16]: 7.87 µM
TGI [16]: 79.2 µM
GI50 [17]: 3.11 µM
TGI [17]: 51.7 µM
GI50 [18]: 3.08 µM
TGI [18]: > 100 µM
GI50 [19]: 5.5 µM
TGI [19]: > 100 µM
GI50 [20]: 2.19 µM
TGI [20]: > 100 µM
GI50 [21]: 4.56 µM
TGI [21]: > 100 µM
GI50 [22]: 5.03 µM
TGI [22]: > 100 µM
GI50 [23]: 3.61 µM
TGI [23]: > 100 µM
GI50 [24]: 3.88 µM
TGI [24]: > 100 µM
GI50 [25]: 3.39 µM
TGI [25]: > 100 µM
GI50 [26]: 4.72 µM
TGI [26]: > 100 µM
GI50 [27]: 1.71 µM
TGI [27]: 7.53 µM
GI50 [28]: 1.98 µM
TGI [28]: 5.52 µM
GI50 [29]: 4.19 µM
TGI [29]: > 100 µM
GI50 [30]: 7.83 µM
TGI [30]: > 100 µM
GI50 [31]: 5.48 µM
TGI [31]: > 100 µM
GI50 [32]: 3.83 µM
TGI [32]: > 100 µM
GI50 [33]: 2.98 µM
TGI [33]: > 100 µM
GI50 [34]: 3.11 µM
TGI [34]: 12.2 µM
GI50 [35]: 3.21 µM
TGI [35]: 22.9 µM
GI50 [36]: 49.3 µM
TGI [36]: > 100 µM
GI50 [37]: 7.84 µM
TGI [37]: > 100 µM
GI50 [38]: 5.29 µM
TGI [38]: > 100 µM
GI50 [39]: 4.44 µM
TGI [39]: > 100 µM
GI50 [40]: 5.09 µM
TGI [40]: > 100 µM
GI50 [41]: 2.57 µM
TGI [41]: 9.23 µM
GI50 [42]: 6.44 µM
TGI [42]: > 100 µM
GI50 [43]: 3.23 µM
TGI [43]: 16 µM
GI50 [44]: 3.08 µM
TGI [44]: 11.7 µM
GI50 [45]: 3.93 µM
TGI [45]: 34.7 µM
GI50 [46]: 7.12 µM
TGI [46]: > 100 µM
GI50 [47]: 3.17 µM
TGI [47]: > 100 µM
GI50 [48]: 3.76 µM
TGI [48]: 76.7 µM
GI50 [49]: 4.26 µM
TGI [49]: > 100 µM
GI50 [50]: 5.46 µM
TGI [50]: 40.2 µM
GI50 [51]: 1.68 µM
TGI [51]: 7.16 µM
GI50 [52]: 1.78 µM
TGI [52]: > 100 µM
GI50 [53]: 3.43 µM
TGI [53]: > 100 µM
GI50 [54]: 4.75 µM
TGI [54]: > 100 µM
GI50 [55]: 13 µM
TGI [55]: > 100 µM
GI50 [56]: 3.95 µM
TGI [56]: 73.9 µM
GI50 [57]: 3.75 µM
TGI [57]: > 100 µM
GI50 [58]: 4.35 µM
TGI [58]: 73.4 µM
